For experiment [1], the target named is T1, ERβ (Homo sapiens, UniProt Q92731). Kind of experiment: fluorescent polarization competitive binding assay, ERβ. Details: purchased PanVera Corp; host or cells: baculovirus expression. Particulars: for IC50: class symbol NC.
Target sequence in this assay (Q92731 whole entry): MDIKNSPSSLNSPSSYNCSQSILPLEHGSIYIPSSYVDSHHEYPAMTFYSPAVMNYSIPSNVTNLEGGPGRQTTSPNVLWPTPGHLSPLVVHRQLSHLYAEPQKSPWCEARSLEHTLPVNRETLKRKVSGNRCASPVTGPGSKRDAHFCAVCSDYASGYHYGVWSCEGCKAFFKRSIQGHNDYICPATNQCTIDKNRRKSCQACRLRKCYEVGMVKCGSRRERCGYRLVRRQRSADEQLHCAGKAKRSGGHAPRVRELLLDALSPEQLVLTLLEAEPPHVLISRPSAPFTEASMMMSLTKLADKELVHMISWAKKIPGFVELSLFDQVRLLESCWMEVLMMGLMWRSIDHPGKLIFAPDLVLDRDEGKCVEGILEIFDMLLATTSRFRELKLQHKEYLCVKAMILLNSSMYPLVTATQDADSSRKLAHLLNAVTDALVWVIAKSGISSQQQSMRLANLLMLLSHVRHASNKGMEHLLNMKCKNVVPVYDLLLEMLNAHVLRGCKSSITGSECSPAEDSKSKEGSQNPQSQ
Experiment [2] has as its target T2, ERα (Homo sapiens, UniProt P03372).
T2 sequence (P03372 1-595): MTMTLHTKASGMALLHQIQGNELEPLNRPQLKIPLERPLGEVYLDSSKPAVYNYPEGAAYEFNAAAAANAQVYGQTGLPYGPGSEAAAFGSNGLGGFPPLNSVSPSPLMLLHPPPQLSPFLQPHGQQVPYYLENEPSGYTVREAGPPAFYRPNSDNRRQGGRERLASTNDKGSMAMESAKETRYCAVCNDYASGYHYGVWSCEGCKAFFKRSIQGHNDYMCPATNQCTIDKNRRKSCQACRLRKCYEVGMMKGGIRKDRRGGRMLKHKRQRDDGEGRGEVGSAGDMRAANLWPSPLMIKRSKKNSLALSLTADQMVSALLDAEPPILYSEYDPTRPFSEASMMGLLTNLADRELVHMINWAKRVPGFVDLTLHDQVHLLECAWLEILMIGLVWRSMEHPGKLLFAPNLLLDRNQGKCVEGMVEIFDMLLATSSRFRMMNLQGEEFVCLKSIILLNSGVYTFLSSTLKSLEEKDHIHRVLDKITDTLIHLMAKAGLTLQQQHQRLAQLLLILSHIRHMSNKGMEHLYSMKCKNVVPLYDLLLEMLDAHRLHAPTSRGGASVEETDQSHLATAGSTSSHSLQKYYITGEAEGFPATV
Particulars: cited from earlier work.

Experiment [3] addresses T1, ERβ. Particulars: cited from earlier work.
Target sequence in this assay (Q92731 whole entry, species assumed): as the sequence (Q92731 whole entry) above
Experiment [4] deals with T2, ERα. The experiment in a line: fluorescent polarization competitive binding assay, ERα. On the set-up: purchased PanVera Corp; host or cells: baculovirus expression. Particulars: for IC50: class symbol NC.

Take `O=c1nc2n(c3cc4ccccc4cc13)Cc1ccccc1-2` [Compd 12]: at ERβ [1], the “binding to ERβ / the receptor (in words)” value is listed as “either very weak or no binding”.

By Kd is commonly meant the equilibrium constant for the complex coming apart. Take `Oc1ccc([C@H]2COc3cc(O)ccc3C2)cc1` [S-equol]: on ERα [2], the “binding affinity for ERα compared to ERβ” value was 10 fold less and the “relative binding affinity for ERα compared to 17β-estradiol” value was 49.2 fold less. On ERβ [3], the Kd was 0.7 nM and the “binding to ERβ relative to 17β-estradiol” value is listed as “approximately 20%”.

The IC50 is the midpoint of a concentration-inhibition curve. The compound `O=c1oc2cc(OCc3cccc(O)c3)ccc2c2c1CCC2` [Compd 10] had an IC50 on ERα [4] of more than 1 mM. In addition, at ERβ [1], the “binding to ERβ / the receptor (in words)” value is listed as “either very weak or no binding” and the IC50 was more than 1 mM.

`Cc1oc2cc(O)ccc2c(=O)c1-c1cc2ccccc2o1` [Compd 4]: the IC50 on ERα [4] and on ERβ [1] was more than 1 mM in each case. Besides, the “binding to ERβ / the receptor (in words)” value at ERβ [1] is listed as “either very weak or no binding”.

For the compound `Oc1ccc(C2COc3cc(O)ccc3C2)cc1` (stereo not shown) [Compd 2], the IC50 at ERα [4] was more than 1 mM.

On to `Oc1ccc([C@@H]2COc3cc(O)ccc3C2)cc1` [R-equol], for which the “relative binding affinity for ERα compared to 17β-estradiol” value on ERα [2] was 210.6 fold less. For the same compound, at ERβ [3], the “binding to ERβ, R-equol enantiomer, fold less” value was “approximately 100 fold less”.

As for `CC(=O)[C@H]1CC[C@H]2[C@@H]3CCC4=CC(=O)CC[C@]4(C)[C@H]3CC[C@]12C` [progesterone, reference compound], the “binding to ERα (in words)” value on ERα [4] is “does not bind”. In addition, on ERβ [1], the “binding to ERβ / the receptor (in words)” value was “does not bind”.

These data come from US20120269793A1, “PHYTOESTROGENIC FORMULATIONS FOR ALLEVIATION OR PREVENTION OF HAIR LOSS” (University of Southern California, priority 2010, published 2012).
